≈ marks a conversion by molar mass, not a printed value. Where a SMILES comes first, the peptide text is derived from it. Bridges are numbered along the chain shown (N, C = ends). Roman numbers before positions name the chains, in order. [ ]: non-standard residue; d: D form. Thr(ol) = C[C@@H](O)[C@H](N)CO; Pen = CC(C)(S)[C@H](N)C(=O)O; Tle = CC(C)(C)[C@H](N)C(=O)O; Hiv = CC(C)[C@H](O)C(=O)O; dDab = NCC[C@@H](N)C(=O)O; Orn = NCCC[C@H](N)C(=O)O; Dab = NCC[C@H](N)C(=O)O; Dap = NC[C@H](N)C(=O)O
Assays:
Type in all cases: cell-based
[1] = system: Pseudomonas aeruginosa ATCC 27853; conditions: ATCC 27853
How it was run: (§1)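 CLSI broth microdilution in cation-adjusted Mueller-Hinton II broth with 0.002% polysorbate 80 (final), inoculum appr. 10^6 CFU/mL, peptides in serial two-fold dilutions. MIC (μg/mL) is the lowest concentration without visible growth after 18-20 h at 35° C.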

[2] = system: Acinetobacter baumannii DSM 30008; conditions: DSM 30008
How it was run: as §1

[3] = system: Klebsiella pneumoniae 968733; conditions: 968733
How it was run: as §1

[4] = system: Klebsiella pneumoniae SSI #3010; conditions: SSI #3010
How it was run: as §1

[5] = system: Enterobacter cloacae 848840; conditions: 848840
How it was run: as §1

[6] = system: Escherichia coli ATCC 25922; conditions: ATCC 25922
How it was run: as §1

[7] = system: Acinetobacter baumannii 872842; conditions: 872842
How it was run: as §1

Escherichia coli 926415 = conditions: 926415
How it was run: as §1

[8] = system: human red blood cells (hRBC); assay: Hemolysis; conditions: red cells of human, 1 h, 200
How it was run: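 Washed fresh human RBC (20% v/v) incubated with peptide at 200 μg/mL for 1 h at 37° C with shaking. Supernatant OD540 measured after dilution, blank corrected; percent hemolysis = OD540 peptide / OD540 of 2% Triton X-100 lysis × 100, PBS with 10% water as 0%.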

MIC [1] | MIC [2] | MIC [3] | MIC [4] | MIC [5] | MIC [6] | MIC [7] | MIC (Escherichia coli 926415) | Structure (SMILES) | Hemolysis at 200 μg/mL [8]
0.25 µg/mL (≈ 0.107 µM) | 0.125 µg/mL (≈ 0.0534 µM) | 2 µg/mL (≈ 0.854 µM) | 0.25 µg/mL (≈ 0.107 µM) | 0.5 µg/mL (≈ 0.214 µM) | 0.0625 µg/mL (≈ 0.0267 µM) | 0.5 µg/mL (≈ 0.214 µM) | 1 µg/mL (≈ 0.427 µM) | CC(C)C[C@@H]1NC(=O)[C@@H](CC(C)C)NC(=O)[C@H](CCN)NC(=O)[C@@H](NC(=O)[C@H](CN)NC(=O)[C@@H](NC(=O)[C@H](CCN)NC(=O)CC[C@@H]2NC(=O)CNC(=O)[C@H](CCCN)NC(=O)[C@@H](NC(=O)[C@H](Cc3ccc(O)cc3)NC(=O)[C@@H](NC(=O)[C@@H](O)C(C)C)[C@@H](C)O)CSSC[C@@H](C(=O)N[C@H](C(=O)N[C@@H](C)C(=O)N[C@H](CO)[C@@H](C)O)C(C)(C)C)NC(=O)[C@H](Cc3c[nH]c4ccccc34)NC2=O)[C@@H](C)O)CCNC(=O)[C@H]([C@@H](C)O)NC(=O)[C@H](CCN)NC(=O)[C@H](CCN)NC1=O [Ex. 212] (I: H-[Hiv]TYC[Orn]GEWC[Tle]A[Thr(ol)] / II: [Dab]T[Dap][Dab][Dab][dL]L[Dab][Dab]T; disulfide I:4-I:9; amide I:7-II:N; lactam II:4-II:C) | 1%
0.25 µg/mL (≈ 0.107 µM) | 0.0625 µg/mL (≈ 0.0268 µM) | 0.5 µg/mL (≈ 0.215 µM) | 0.125 µg/mL (≈ 0.0537 µM) | 1 µg/mL (≈ 0.43 µM) | 0.125 µg/mL (≈ 0.0537 µM) | 0.125 µg/mL (≈ 0.0537 µM) | 0.5 µg/mL (≈ 0.215 µM) | CC(C)C[C@@H]1NC(=O)[C@@H](CC(C)C)NC(=O)[C@H](CCN)NC(=O)[C@@H](NC(=O)[C@H](CN)NC(=O)[C@@H](NC(=O)[C@H](CCN)NC(=O)CC[C@@H]2NC(=O)[C@@H](CCN)NC(=O)CNC(=O)[C@@H](NC(=O)[C@H](Cc3ccc(O)cc3)NC(=O)[C@@H](NC(=O)[C@@H](O)C(C)C)[C@@H](C)O)CSSC[C@@H](C(=O)N[C@H](C(=O)N[C@@H](C)C(=O)N[C@H](CO)[C@@H](C)O)C(C)(C)C)NC(=O)[C@H](Cc3c[nH]c4ccccc34)NC2=O)[C@@H](C)O)CCNC(=O)[C@H]([C@@H](C)O)NC(=O)[C@H](CCN)NC(=O)[C@H](CCN)NC1=O [Ex. 213] (I: H-[Hiv]TYCG[dDab]EWC[Tle]A[Thr(ol)] / II: [Dab]T[Dap][Dab][Dab][dL]L[Dab][Dab]T; disulfide I:4-I:9; amide I:7-II:N; lactam II:4-II:C) | <1%
0.5 µg/mL (≈ 0.215 µM) | 0.125 µg/mL (≈ 0.0537 µM) | 0.5 µg/mL (≈ 0.215 µM) | 0.25 µg/mL (≈ 0.107 µM) | 8 µg/mL (≈ 3.44 µM) | 0.0625 µg/mL (≈ 0.0268 µM) | 0.5 µg/mL (≈ 0.215 µM) | 0.5 µg/mL (≈ 0.215 µM) | CC(C)C[C@@H]1NC(=O)[C@@H](CC(C)C)NC(=O)[C@H](CCN)NC(=O)[C@@H](NC(=O)[C@H](CN)NC(=O)[C@@H](NC(=O)[C@H](CCN)NC(=O)CC[C@H]2NC(=O)[C@@H](CCN)NC(=O)CNC(=O)[C@@H](NC(=O)[C@H](Cc3ccc(O)cc3)NC(=O)[C@@H](NC(=O)[C@@H](O)C(C)C)[C@@H](C)O)CSSC[C@@H](C(=O)N[C@H](C(=O)N[C@@H](C)C(=O)N[C@H](CO)[C@@H](C)O)C(C)(C)C)NC(=O)[C@H](Cc3c[nH]c4ccccc34)NC2=O)[C@@H](C)O)CCNC(=O)[C@H]([C@@H](C)O)NC(=O)[C@H](CCN)NC(=O)[C@H](CCN)NC1=O [Ex. 214] (I: H-[Hiv]TYCG[dDab][dE]WC[Tle]A[Thr(ol)] / II: [Dab]T[Dap][Dab][Dab][dL]L[Dab][Dab]T; disulfide I:4-I:9; amide I:7-II:N; lactam II:4-II:C) | <1%

More lines, now with the values behind:

Structure (SMILES) | MIC [1] | MIC [2] | MIC [3] | MIC [4] | MIC [5] | MIC [6] | MIC [7] | MIC (Escherichia coli 926415) | Hemolysis at 200 μg/mL [8]
CC(C)C[C@@H]1NC(=O)[C@@H](CC(C)C)NC(=O)[C@H](CCN)NC(=O)[C@@H](NC(=O)[C@H](CN)NC(=O)[C@@H](NC(=O)[C@H](CCN)NC(=O)CC[C@@H]2NC(=O)[C@@H](CCN)NC(=O)[C@H](CCCN)NC(=O)[C@@H](NC(=O)[C@H](Cc3ccc(O)cc3)NC(=O)[C@@H](NC(=O)[C@@H](O)C(C)C)[C@@H](C)O)CSSC[C@@H](C(=O)N[C@H](C(=O)N[C@@H](C)C(=O)N[C@H](CO)[C@@H](C)O)C(C)(C)C)NC(=O)[C@H](Cc3c[nH]c4ccccc34)NC2=O)[C@@H](C)O)CCNC(=O)[C@H]([C@@H](C)O)NC(=O)[C@H](CCN)NC(=O)[C@H](CCN)NC1=O [Ex. 211] (I: H-[Hiv]TYC[Orn][dDab]EWC[Tle]A[Thr(ol)] / II: [Dab]T[Dap][Dab][Dab][dL]L[Dab][Dab]T; disulfide I:4-I:9; amide I:7-II:N; lactam II:4-II:C) | 0.125 µg/mL (≈ 0.0524 µM) | 0.03125 µg/mL (≈ 0.0131 µM) | 0.25 µg/mL (≈ 0.105 µM) | 0.0625 µg/mL (≈ 0.0262 µM) | 2 µg/mL (≈ 0.839 µM) | 0.0625 µg/mL (≈ 0.0262 µM) | 0.0625 µg/mL (≈ 0.0262 µM) | 0.25 µg/mL (≈ 0.105 µM) | <1%
CC(=O)N[C@H](C(=O)N[C@H](C(=O)N[C@@H](Cc1ccc(O)cc1)C(=O)N[C@H]1CSSC[C@@H](C(=O)N[C@H](C(=O)N[C@@H](C)C(=O)N[C@H](C(N)=O)[C@@H](C)O)C(C)(C)C)NC(=O)[C@H](Cc2c[nH]c3ccccc23)NC(=O)[C@H](CO)NC(=O)[C@@H](CCN)NC(=O)[C@H](CCC(=O)N[C@@H](CCN)C(=O)N[C@H](C(=O)N[C@@H](CN)C(=O)N[C@H]2CCNC(=O)[C@H]([C@@H](C)O)NC(=O)[C@H](CCN)NC(=O)[C@H](CCN)NC(=O)[C@H](CC(C)C)NC(=O)[C@@H](CC(C)C)NC(=O)[C@H](CCN)NC2=O)[C@@H](C)O)NC1=O)[C@@H](C)O)C(C)C [Ex. 220] (I: Ac-VTYCE[dDab]SWC[Tle]AT-NH2 / II: [Dab]T[Dap][Dab][Dab][dL]L[Dab][Dab]T; disulfide I:4-I:9; amide I:5-II:N; lactam II:4-II:C) | 0.125 µg/mL (≈ 0.0518 µM) | 0.03125 µg/mL (≈ 0.013 µM) | 0.125 µg/mL (≈ 0.0518 µM) | 0.0625 µg/mL (≈ 0.0259 µM) | 0.125 µg/mL (≈ 0.0518 µM) | 0.03125 µg/mL (≈ 0.013 µM) | 0.0625 µg/mL (≈ 0.0259 µM) | 0.125 µg/mL (≈ 0.0518 µM) | <1%
CC(=O)N[C@H](C(=O)N[C@H](C(=O)N[C@@H](Cc1ccc(O)cc1)C(=O)N[C@H]1CSSC(C)(C)[C@@H](C(=O)N[C@H](C(=O)N[C@H](C(=O)N[C@H](C(N)=O)[C@@H](C)O)[C@@H](C)O)C(C)(C)C)NC(=O)[C@H](Cc2c[nH]c3ccccc23)NC(=O)[C@H](CO)NC(=O)[C@@H](CCN)NC(=O)[C@H](CCC(=O)N[C@@H](CCN)C(=O)N[C@H](C(=O)N[C@@H](CN)C(=O)N[C@H]2CCNC(=O)[C@H]([C@@H](C)O)NC(=O)[C@H](CCN)NC(=O)[C@H](CCN)NC(=O)[C@H](CC(C)C)NC(=O)[C@@H](CC(C)C)NC(=O)[C@H](CCN)NC2=O)[C@@H](C)O)NC1=O)[C@@H](C)O)C(C)C [Ex. 221] (I: Ac-VTYCE[dDab]SW[Pen][Tle]TT-NH2 / II: [Dab]T[Dap][Dab][Dab][dL]L[Dab][Dab]T; disulfide I:4-I:9; amide I:5-II:N; lactam II:4-II:C) | 0.125 µg/mL (≈ 0.0506 µM) | 0.0625 µg/mL (≈ 0.0253 µM) | 0.25 µg/mL (≈ 0.101 µM) | 0.125 µg/mL (≈ 0.0506 µM) | 0.125 µg/mL (≈ 0.0506 µM) | 0.0625 µg/mL (≈ 0.0253 µM) | 0.0625 µg/mL (≈ 0.0253 µM) | 0.125 µg/mL (≈ 0.0506 µM) | 2%
CC(=O)N[C@H](C(=O)N[C@H](C(=O)N[C@@H](Cc1ccc(O)cc1)C(=O)N[C@H]1CSSC(C)(C)[C@@H](C(=O)N[C@H](C(=O)N[C@H](C(=O)N[C@H](C(N)=O)[C@@H](C)O)[C@@H](C)O)C(C)C)NC(=O)[C@H](Cc2c[nH]c3ccccc23)NC(=O)[C@H](CO)NC(=O)[C@@H](CCN)NC(=O)[C@H](CCC(=O)N[C@@H](CCN)C(=O)N[C@H](C(=O)N[C@@H](CN)C(=O)N[C@H]2CCNC(=O)[C@H]([C@@H](C)O)NC(=O)[C@H](CCN)NC(=O)[C@H](CCN)NC(=O)[C@H](CC(C)C)NC(=O)[C@@H](CC(C)C)NC(=O)[C@H](CCN)NC2=O)[C@@H](C)O)NC1=O)[C@@H](C)O)C(C)C [Ex. 222] (I: Ac-VTYCE[dDab]SW[Pen]VTT-NH2 / II: [Dab]T[Dap][Dab][Dab][dL]L[Dab][Dab]T; disulfide I:4-I:9; amide I:5-II:N; lactam II:4-II:C) | 0.125 µg/mL (≈ 0.0509 µM) | 0.0625 µg/mL (≈ 0.0254 µM) | 0.25 µg/mL (≈ 0.102 µM) | 0.0625 µg/mL (≈ 0.0254 µM) | 0.125 µg/mL (≈ 0.0509 µM) | 0.03125 µg/mL (≈ 0.0127 µM) | 0.0625 µg/mL (≈ 0.0254 µM) | 0.25 µg/mL (≈ 0.102 µM) | 1%

From patent US11629171B2, “Beta-hairpin peptidomimetics” (POLYPHOR AG, priority 2017, dated 2023)
